# Data as given in patent US20260364072A1, “METHODS FOR PROMOTING EXPANSION OF HUMAN CD34+ CELLS IN VIVO AND FOR PROMOTING NEURAL REGENERATION” (THE REGENTS OF THE UNIVERSITY OF CALIFORNIA, priority 2023, published 2026).
# What was measured:
# MDA-MB-231 cells = test: IVIS total flux in MDA-MB-231 transplanted mice; type: in vivo, human cells in Rag2 neonatal mice; settings: 0 day after completing the dosing plan; compared to vehicle control
# Source text: FIG. 5 graphically illustrates IVIS (In Vivo Imaging System) results of ADAR1-MDA-MB-231 transplanted Rag2 mouse models, and IVIS images were taken at 6 weeks after transplant (FIG. 5A), after two weeks of therapy (FIG. 5B), and one week after therapy was completed (FIG. 5C), as discussed in further detail in Example 5, below.
# Ten thousand (10k) MDA-MB-231 cells were intrahepatically transplanted into Rag2 neonatal mice, then treated with fedratinib, rebecsinib, or a combination of fedratinib and rebecsinib. IVIS images were taken at 6 weeks after transplant (FIG. 5A), after two weeks of therapy (FIG. 5B), and one week after therapy was completed (FIG. 5C). The IVIS signals from the mice were graphed by groups.
# The IVIS images of these mice were taken at 0 day after completing the dosing plan and are graphed by their total flux.
# normal aged HSPC = test: ADAR1 nanoluc-GFP aged normal bone marrow CD34+ engrafted mice; type: in vivo, human cells in immunocompromised mice; settings: 10 mg/kg
# Source text: To further test the utility of the ADAR1 nanoluc-GFP reporter for in vivo detection of endogenous ADAR1 activity, primary human aged normal bone marrow CD34^+ cells were transduced with the reporter vector and transplanted into immunocompromised mice. ADAR1 activity was detected by live animal bioluminescence imaging and corresponded with human cell engraftment detection by flow cytometry.
# In humanized mouse models, sAML cells (CD34^+) from two unique […] patient samples that were splicing factor mutated or unmutated were utilized, including sAML50261 and sAML2008-5.^14 For in vivo efficacy and therapeutic index studies, sAML CD34^+ cells, or normal human cord blood-derived or aged bone marrow-derived HSPCs (CD34^+), were transplanted (50,000-200,000 cells per mouse) intrahepatically into neonatal Rag2^−/−γc^−/− mice, or intravenously into adult NSG-SGM3 mice (Jackson Laboratories, Bar Harbor, ME). A subset of experiments was performed with normal aged bone marrow cells that were transduced with the lentiviral ADAR1 nanoluc-GFP reporter vector prior to transplant. For transplantation into adult mice, animals were irradiated with ^137Cs at a dose of 150 cGy 24 hr before IV transplantation. […]
# AZIN1 transcript = AZIN1 transcript editing by RESSqPCR in TF1a cells; type: cell-based, human; settings: shADAR1-transduced cells treated with Rebecsinib compared with vehicle controls
# Source text: For lentivirus-mediated knockdown of human ADAR1 in ADAR1 activation and RNA editing biomarker studies of the nanoluc-GFP reporter and endogenous transcripts, human leukemia cells were stably transduced with the lentiviral shRNA vectors targeting ADAR1 (shADAR1) or scrambled control (shCtrl) to ablate endogenous ADAR1 expression. The shRNA plasmids targeting ADAR1 (shADAR1) as well as the scrambled control (shCtrl) were purchased from VectorBuilder (Chicago, IL) (shCtrl: […] (SEQ ID NO:3) and shADAR1: […]) (SEQ ID NO:4). […] Viral titers were assessed by qRT-PCR and transduction efficiency was tested in 293T cells. […]
# For quantitative analysis of splice isoform expression, RNA editing rates, and whole gene expression by qRT-PCR, cells or tissue fragments were harvested in RNA lysis buffer and total RNA was extracted using RNeasy mini or micro extraction kits (QIAGEN, Germantown, MD) following the manufacturer's protocol including a DNase incubation step to digest any trace genomic DNA present. Levels of ADAR1 variants and LSC-specific transcripts were quantified by qRT-PCR as previously described.^14 RNA-editing site-specific qRT-PCR (RESSqPCR) was performed for variants in AZIN1 transcripts.^53 Additional species-specific primers were also designed to quantify intron retention rates in cells treated with Rebecsinib as a biomarker of response to RNA splicing modulation. […]
smiles,measurement,setting,value
CC[C@H](OC)[C@@H](C)[C@H]1O[C@@H]1[C@@H](O)[C@H](C)/C=C/C=C(\C)[C@H]1OC(=O)C[C@H](O)CC[C@@](C)(O)[C@@H](OC(C)=O)/C=C/[C@@H]1C [Rebecsinib],total flux (IVIS),MDA-MB-231 cells,significantly decreased
same,human HSPC engraftment and mature T or B cell maturation,normal aged HSPC,no loss of human HSPC engraftment or mature T or B cell maturation
same,frequency of normal CD34+ cells in bone marrow,normal aged HSPC; in comparison to cord blood transplantation models,appeared to be increased
same,AZIN1 transcript editing activity (RESSqPCR),AZIN1 transcript,low levels of AZIN1 transcript editing activity
